# Source: patent US6461997B1, “Triazole sulfones having herbicidal activity” (Monsanto Technology LLC, priority 1999, dated 2002)
# Key:
# [1] = tested on: VERPE (creeping speedwell); experiment: Pre-plant incorporated (PPI) herbicidal activity, cool season; assay type: in vivo, Veronica persicaria; details: for PPI activity GR80, VERPE: pre-plant incorporated, lowest tested rate with 80% or greater inhibition, about 14 days; for Percent inhibition VERPE: weed, PPI application
# Method in brief: (§1)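 Percent inhibition relative to untreated plants, scored about 14 days after planting. Compound was sprayed in organic solvent onto cover soil, mixed through, and layered over seeds on compacted topsoil. Warm-season species grown at 30/21° C, cool-season at 18/13° C day/night.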
# [2] = tested on: AMARE (redroot pigweed); experiment: Pre-plant incorporated (PPI) herbicidal activity, warm season; assay type: in vivo, Amaranthus retroflexus; details: for Percent inhibition AMARE: PPI application; for PPI activity (GR80) AMARE: pre-plant incorporated, GR80 = lowest tested rate with 80% or greater inhibition, approx. 14 days after treating, 30/21° C.
# Method in brief: as §1
# [3] = tested on: XANST (cocklebur); experiment: as above; assay type: in vivo, Xanthium strumarium; details: PPI application
# Method in brief: as §1
# [4] = tested on: wheat (TRZAW); experiment: Selectivity test, PPI, cool season crop; assay type: in vivo, Triticum aestivum; details: PPI application
# Method in brief: (§2)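 Percent inhibition relative to untreated controls, assessed roughly 14 days post-planting. Seeds were covered with a soil layer into which solvent-borne compound had been sprayed and mixed. Plants were then grown at 30/21° C. (warm season) or 18/13° C. (cool season) day/night regimes.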
# [5] = tested on: PANDI (fall panicum); experiment: Pre-plant incorporated (PPI) herbicidal activity, warm season; assay type: in vivo, Panicum dichotomiflorum; details: for PPI activity GR80, PANDI: pre-plant incorporated, lowest tested rate with 80% or greater inhibition, about 14 days; for Percent inhibition PANDI: PPI application
# Method in brief: as §1
# [6] = tested on: POLCO (wild buckwheat); experiment: Pre-plant incorporated (PPI) herbicidal activity, cool season; assay type: in vivo, Polygonum convolvulus; details: for PPI activity GR80, POLCO: pre-plant incorporated, lowest tested rate with 80% or greater inhibition, about 14 days; for Percent inhibition POLCO: weed, PPI application
# Method in brief: as §1
# [7] = tested on: oilseed rape (BRSNS); experiment: Selectivity test, PPI, cool season crop; assay type: in vivo, Brassica napus; details: PPI application
# Method in brief: as §2
# [8] = tested on: POLCO (wild buckwheat); experiment: Pre-emergence herbicidal activity, cool season; assay type: in vivo, Polygonum convolvulus; details: lowest tested rate with 80% or greater inhibition; rates 300, 100, 30, 10 g/ha; about 14 days
# Method in brief: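 Activity is expressed as the rate giving 80% inhibition, with 300, 100, 30 and 10 g/ha typically tested. An asterisk marks activity short of 80% at the top rate. Warm-season grasses were held at 30/21 °C; cool-season blackgrass and wild buckwheat at 18/13 °C; scoring at about 14 days.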
# [9] = tested on: ALOMY (blackgrass); experiment: Pre-plant incorporated (PPI) herbicidal activity, cool season; assay type: in vivo, Alopecurus myosuroides; details: for PPI activity GR80, ALOMY: pre-plant incorporated, lowest tested rate with 80% or greater inhibition, about 14 days; for Percent inhibition ALOMY: weed, PPI application
# Method in brief: as §1
# [10] = tested on: SASKR (russian thistle); experiment: Pre-emergence herbicidal activity, cool season; assay type: in vivo, Salsola kali; details: lowest tested rate with 80% or greater inhibition; rates 300, 100, 30, 10 g/ha; about 14 days
# Method in brief: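 GR80 values derive from percent inhibition relative to untreated plants, read roughly 14 days after sowing and pre-emergence soil-surface treatment (compound in 50:50 acetone/water; rates typically 10, 30, 100, 300 g/ha). Warm-season weeds grew at 30/21° C day/night, cool-season ones at 18/13° C; an asterisk marks activity without reaching 80% at the highest rate.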
# [11] = tested on: ECHCG (barnyardgrass); experiment: Pre-plant incorporated (PPI) herbicidal activity, warm season; assay type: in vivo, Echinochloa crus-galli; details: for Percent inhibition ECHCG: PPI application; for PPI activity GR80, ECHCG: pre-plant incorporated, lowest tested rate with 80% or greater inhibition, about 14 days
# Method in brief: as §1
smiles,measurement,setting,value
C=C(CC(F)(F)S(=O)(=O)c1ncn(C(=O)N(CC)CC)n1)C[Si](C)(C)C [Example 20],"PPI activity GR80, VERPE",[1],30 g/ha
same,Percent inhibition VERPE,[1]; 10 g/ha,0%
same,Percent inhibition VERPE,[1]; 30 g/ha,90%
same,Percent inhibition VERPE,[1]; 100 g/ha,50%
same,Percent inhibition VERPE,[1]; 300 g/ha,90%
same,Percent inhibition VERPE,[1]; 900 g/ha,95%
same,Percent inhibition AMARE,[2]; 10 g/ha,0%
same,Percent inhibition AMARE,[2]; 30 g/ha,0%
same,Percent inhibition AMARE,[2]; 100 g/ha,50%
same,Percent inhibition AMARE,[2]; 300 g/ha,100%
same,Percent inhibition AMARE,[2]; 900 g/ha,100%
same,PPI activity (GR80) AMARE,[2],300 g/ha
same,Percent inhibition XANST,[3]; 10 g/ha,0%
same,Percent inhibition XANST,[3]; 30 g/ha,0%
same,Percent inhibition XANST,[3]; 100 g/ha,0%
same,Percent inhibition XANST,[3]; 900 g/ha,50%
same,Percent inhibition TRZAW,[4]; 10 g/ha,0%
same,Percent inhibition TRZAW,[4]; 30 g/ha,0%
same,Percent inhibition TRZAW,[4]; 100 g/ha,0%
same,Percent inhibition TRZAW,[4]; 300 g/ha,40%
same,Percent inhibition TRZAW,[4]; 900 g/ha,60%
same,"PPI activity GR80, PANDI",[5],100 g/ha
same,"PPI activity GR80, POLCO",[6],"* (activity observed, at least at highest rate, but <80% inhibition)"
same,Percent inhibition BRSNS,[7]; 10 g/ha,0%
same,Percent inhibition BRSNS,[7]; 30 g/ha,20%
same,Percent inhibition BRSNS,[7]; 100 g/ha,20%
same,Percent inhibition BRSNS,[7]; 300 g/ha,60%
same,Percent inhibition BRSNS,[7]; 900 g/ha,95%
same,"Pre-emergence activity GR80, POLCO",[8],"* (activity observed, at least at highest rate, but <80% inhibition)"
same,"PPI activity GR80, ALOMY",[9],100 g/ha
same,Percent inhibition ALOMY,[9]; 10 g/ha,0%
same,Percent inhibition ALOMY,[9]; 30 g/ha,0%
same,Percent inhibition ALOMY,[9]; 100 g/ha,20%
same,Percent inhibition ALOMY,[9]; 300 g/ha,50%
same,Percent inhibition ALOMY,[9]; 900 g/ha,100%
same,"Pre-emergence activity GR80, SASKR",[10],[empty]
same,Percent inhibition ECHCG,[11]; 10 g/ha,0%
same,Percent inhibition ECHCG,[11]; 30 g/ha,0%
same,Percent inhibition ECHCG,[11]; 100 g/ha,20%
same,Percent inhibition ECHCG,[11]; 300 g/ha,70%
same,Percent inhibition ECHCG,[11]; 900 g/ha,100%
same,"PPI activity GR80, ECHCG",[11],300 g/ha
CCN(CC)C(=O)n1cnc(S(=O)(=O)C(F)(F)C(F)F)n1 [Example 16],"PPI activity GR80, VERPE",[1],100 g/ha
same,Percent inhibition VERPE,[1]; 10 g/ha,100%
same,Percent inhibition VERPE,[1]; 30 g/ha,95%
same,Percent inhibition VERPE,[1]; 100 g/ha,100%
same,Percent inhibition VERPE,[1]; 300 g/ha,100%
same,Percent inhibition VERPE,[1]; 900 g/ha,100%
same,Percent inhibition AMARE,[2]; 10 g/ha,80%
same,Percent inhibition AMARE,[2]; 30 g/ha,100%
same,Percent inhibition AMARE,[2]; 100 g/ha,100%
same,Percent inhibition AMARE,[2]; 300 g/ha,100%
same,Percent inhibition AMARE,[2]; 900 g/ha,100%
same,PPI activity (GR80) AMARE,[2],10 g/ha
same,Percent inhibition XANST,[3]; 10 g/ha,0%
same,Percent inhibition XANST,[3]; 30 g/ha,0%
same,Percent inhibition XANST,[3]; 100 g/ha,0%
same,Percent inhibition XANST,[3]; 300 g/ha,0%
same,Percent inhibition XANST,[3]; 900 g/ha,95%
same,Percent inhibition TRZAW,[4]; 10 g/ha,0%
same,Percent inhibition TRZAW,[4]; 30 g/ha,0%
same,Percent inhibition TRZAW,[4]; 100 g/ha,10%
same,Percent inhibition TRZAW,[4]; 300 g/ha,10%
same,Percent inhibition TRZAW,[4]; 900 g/ha,20%
same,Percent inhibition PANDI,[5]; 10 g/ha,0%
same,Percent inhibition PANDI,[5]; 30 g/ha,100%
same,Percent inhibition PANDI,[5]; 100 g/ha,100%
same,Percent inhibition PANDI,[5]; 300 g/ha,100%
same,Percent inhibition PANDI,[5]; 900 g/ha,100%
same,"PPI activity GR80, PANDI",[5],10 g/ha
same,"PPI activity GR80, POLCO",[6],100 g/ha
same,Percent inhibition POLCO,[6]; 10 g/ha,0%
same,Percent inhibition POLCO,[6]; 30 g/ha,0%
same,Percent inhibition POLCO,[6]; 100 g/ha,0%
same,Percent inhibition POLCO,[6]; 300 g/ha,0%
same,Percent inhibition POLCO,[6]; 900 g/ha,95%
same,Percent inhibition BRSNS,[7]; 10 g/ha,0%
same,Percent inhibition BRSNS,[7]; 30 g/ha,0%
same,Percent inhibition BRSNS,[7]; 100 g/ha,0%
same,Percent inhibition BRSNS,[7]; 300 g/ha,30%
same,Percent inhibition BRSNS,[7]; 900 g/ha,75%
same,"Pre-emergence activity GR80, POLCO",[8],[empty]
same,"PPI activity GR80, ALOMY",[9],30 g/ha
same,Percent inhibition ALOMY,[9]; 10 g/ha,40%
same,Percent inhibition ALOMY,[9]; 30 g/ha,95%
same,Percent inhibition ALOMY,[9]; 100 g/ha,100%
same,Percent inhibition ALOMY,[9]; 300 g/ha,100%
same,Percent inhibition ALOMY,[9]; 900 g/ha,100%
same,"Pre-emergence activity GR80, SASKR",[10],100 g/ha
same,Percent inhibition ECHCG,[11]; 10 g/ha,90%
same,Percent inhibition ECHCG,[11]; 30 g/ha,100%
same,Percent inhibition ECHCG,[11]; 100 g/ha,100%
same,Percent inhibition ECHCG,[11]; 300 g/ha,100%
same,Percent inhibition ECHCG,[11]; 900 g/ha,100%
same,"PPI activity GR80, ECHCG",[11],30 g/ha
